According to US20260325500A1, “METHODS AND COMPOSITIONS FOR TREATING ACUTE STRESS DISORDER” (BioXcel Therapeutics, Inc., priority 2022, published 2026):
“Also recorded” adds a separate entry of the source. Structures can show the parent of a compound that is named as a salt.

Test system: Yohimbine-induced noradrenergic mediated hyperarousal in Wistar rats
Experiment: Elevated plus maze, yohimbine-induced noradrenergic mediated hyperarousal (Example 2)
Assay type: in vivo
Source text: Background: Yohimbine is an alpha 2-adrenergic receptor antagonist reported to trigger panic attacks in healthy volunteers and to exacerbate symptoms in patients with panic disorder (Charney et al., 1992 Acta Psychiatr Scand., Vol. 86 (4): 273-282). Peripheral administration of Yohimbine causes noradrenergic mediated hyperarousal in rats as assessed by the EPM paradigm.
Rationale: The drug yohimbine is a natural product used to test a specific pathway, noradrenergic-mediated hyper-arousal. It is well established that yohimbine is an alpha2-adrenergic receptor antagonist and activates the locus coeruleus (LC) and increases noradrenergic signaling (the opposite of alpha2-adrenergic agonists like dexmedetomidine and clonidine). Increased LC activity and noradrenergic signaling makes animals anxious and agitated which can be measured by using the elevated plus maze. In the elevated plus maze, rodents were in the closed arms and explored the open arms depending on their anxiety and agitation (rats and mice normally explore their environments extensively when calm). […] This behavior is correlated to increased level of anxiety caused by noradrenergic mediated hyperarousal.
Animal groups: Male: Wistar rats were used in this study and were randomly divided to different experimental groups (12 animals per group).
Study drugs: Four test drugs with different mechanisms of action linked to agitation were chosen to find drugs that are effective in reducing yohimbine-induced agitation: (1) Fluvoxamine (selective serotonin reuptake inhibitor) (2) Dextromethorphan (modulator of NMDA signals) (3) Diazepam (modulator of gamma-aminobutyric acid (GABA) as a positive control) and (4) Latrepirdine (complex pharmacology).
The test drugs were procured from Sigma or Tocris. dextromethorphan from Sigma Aldrich, Cat No. D9684; latrepirdine from Sigma Aldrich, Cat No. D6196 or Tocris Cat No. 3201 diazepam and fluvoxamine Sigma Aldrich, Cat No. F2802 or Tocris, Cat No. 1033. All these test drugs were formulated in sufficient quantity in 0.9% saline except for fluvoxamine, which was formulated in 30% ethanol in 0.9% saline.
Apparatus: Elevated Plus Maze (EPM) was used (FIG. 1). The maze consisted of two closed arms and two open arms forming a cross, with a square center platform. All visible surfaces were made of black acrylic. Each arm of the maze was placed on a support column above the floor. Antistatic black vinyl curtains used for surrounding the EPM to make an enclosure.
Study design and dosing: Yohimbine was administered by intraperitoneal injection (i.p.) at a dose of 2.5 mg/kg (30 minutes prior to study) to induce agitation and the effects were assessed 30 minutes after yohimbine injection by measuring the number of open arm entries and exploration time in the EPM. The test drugs fluvoxamine, dextromethorphan and latrepirdine dihydrochloride hydrate were administered through intramuscular route and, diazepam through intraperitoneal route into the hindleg thigh muscle of rats (60 minutes prior to study; 30 minutes prior to yohimbine administration). Diazepam was injected 30 minutes intraperitonially prior to the assay i.e. along with yohimbine administration. The study design is illustrated in FIG. 2 and table 5.
After the test drug administration, the rat was placed on the platform opposite a closed arm. The number of entries and the time spent in each arm were recorded during a 5 min period. The animal was considered as entered in arm when it placed its four paws into the arm.
Statistical analysis: Analysis of variance (ANOVA) was performed on the result data. Fisher's PLSD was used for pairwise comparisons and p value≤0.05 was considered significant.

[1] = 3 mg/kg and 10 mg/kg, i.m., 60 min prior, yohimbine 2.5 mg/kg i.p.

Cc1ccc2c(c1)c1c(n2CCc2ccc(C)nc2)CCN(C)C1 [latrepirdine dihydrochloride hydrate]
open arm entries and time spent, comparison with diazepam (3 mg/kg and 10 mg/kg, i.m. versus diazepam 1 mg/kg, i.p.): comparable to diazepam
number of open arm entries [1]: significantly increased number of open arm entries; also recorded: significantly increased the number of entries into the open arms
time spent in the open arms (exploration time) [1]: increased exploration time; also recorded: significantly increased
yohimbine-induced noradrenergic mediated hyperarousal (latrepirdine 3 mg/kg and 10 mg/kg, i.m., yohimbine 2.5 mg/kg i.p.): reversed yohimbine-induced noradrenergic mediated hyperarousal
